Data on five compounds can be found in ChEMBL document CHEMBL5360626, “Bifunctionalized Betulinic Acid Conjugates with C-3-Monodesmoside and C-28-Triphenylphosphonium Moieties with Increased Cancer Cell Targetability” (J Nat Prod, 2023).

The term IC50 denotes the point on the concentration scale where inhibition reaches its midpoint. Lower therefore signals greater potency.

The source made the active and inactive calls. No cut-off for these calls is given here.

Data set [1] is described as follows: Selectivity index, ratio of IC50 for human skin fibroblast to IC50 for human PC-3 cells. The data set is classed as toxicity. The settings on record: human skin fibroblasts and PC-3 cells, read-out: Ratio IC50.
Data set [2] is described as follows: Selectivity index, ratio of IC50 for human skin fibroblast to IC50 for human Caco-2 cells.
Data set [3] is described as follows: Drug accumulation in human PC-3 cells at 1 uM incubated for 2 hrs by LC-MS/MS analysis. The format is ADME, cell-based. The following applies: pc-3, 2 h.
Another data set has as its system MCF7. In words: Cytotoxicity against human MCF7 cells incubated for 72 hrs by MTT assay. The settings on record: MCF7, 72 h. The data set is classed as functional, cell-based. A general note: Tetrazolium dyes change colour on reduction, which living cells bring about.
The subject of another data set is Caco-2. In words: Cytotoxicity against human Caco-2 cells incubated for 72 hrs by MTT assay. The format is functional, cell-based. The following applies: Caco-2, 72 h.
Data set [4] is described as follows: Cytotoxicity against human skin fibroblast cells incubated for 72 hrs by MTT assay. The data set is classed as toxicity, cell-based.
In data set [5] the test system is PC-3. In words: Cytotoxicity against human PC-3 cells incubated for 72 hrs by MTT assay. The data set is classed as functional, cell-based. The following applies: PC-3, 72 h.
Data set [6] concerns PC-3. The experiment in a line: Downregulation of ATG14 expression in human PC-3 cells at IC50 incubated for 3 days by Western blot analysis. The data set is classed as functional, cell-based. The following applies: time 3.0 day. A general note: A western blot detects proteins with antibodies after separation by electrophoresis.
In data set [7] the test system is PC-3. The experiment in a line: […] of ROS production in human PC-3 cells at 30 uM incubated for 1 hr by MitoSOX staining based flow cytometry. The format is functional, cell-based. On the technique in general: In flow cytometry, cells or beads pass a laser one at a time.
Data set [8] relates to PC-3. In words: Downregulation of LC-3 expression in human PC-3 cells at IC50 incubated for 3 days by Western blot analysis. The data set is classed as functional, cell-based. The settings on record: time 3.0 day.
The subject of data set [9] is PC-3. In words: Downregulation of Beclin-1 expression in human PC-3 cells at IC50 incubated for 3 days by Western blot analysis. The format is functional, cell-based. The settings on record: time 3.0 day.
Data set [10] deals with PC-3. In words: Downregulation of Akt expression in human PC-3 cells at IC50 incubated for 3 days by Western blot analysis. The settings on record: time 3.0 day. The data set is classed as functional, cell-based.
In data set [11] the test system is PC-3. The experiment in a line: Upregulation of Cas3 expression in human PC-3 cells at IC50 incubated for 3 days by Western blot analysis. The format is functional, cell-based. The settings on record: time 3.0 day.
The subject of data set [12] is PC-3. In words: Induction of mitochondrial transmembrane potential dissipation in human PC-3 cells at 30 uM incubated for 1 hr by TMRE staining based flow cytometry. The data set is classed as functional, cell-based.

For the compound `C=C(C)[C@@H]1CC[C@]2(C(=O)OCCCCCC[P+](c3ccccc3)(c3ccccc3)c3ccccc3)CC[C@]3(C)[C@H](CC[C@@H]4[C@@]5(C)CC[C@H](O)C(C)(C)[C@@H]5CC[C@]43C)[C@@H]12.[Br-]`, the selectivity ratio in data set [1] came out at 8.3. For the same compound, the Ratio IC50 in data set [2] is 4.7. The Drug uptake in [3] was found to be 3.5 µM. Moreover, the IC50 in the data set with MCF7 is 0.8 µM; in the data set with Caco-2, 1.4 µM; with PC-3 [5], 0.8 µM. For the same compound, in data set [4], the IC50 at 72 h came out at 8.5 µM.

For the compound `C=C(C)[C@@H]1CC[C@]2(C(=O)OCCCCCC[P+](c3ccccc3)(c3ccccc3)c3ccccc3)CC[C@]3(C)[C@H](CC[C@@H]4[C@@]5(C)CC[C@H](O[C@@H]6O[C@H](CO)[C@@H](O)[C@H](O)[C@H]6O)C(C)(C)[C@@H]5CC[C@]43C)[C@@H]12.[Br-]`, the outcome in the data set on PC-3 [6], with PC-3 [7], in the data set on PC-3 [8], with PC-3 [9], with PC-3 [10] and with PC-3 [11] was Active. The outcome with PC-3 [12] was Active. Moreover, the selectivity ratio in data set [1] is 32. The Ratio IC50 in data set [2] turned out to be 10.2. The compound also yielded a Drug uptake in data set [3] of 172.9 µM. For the same compound, the IC50 amounted to 0.7 µM in the data set with MCF7, 1.1 µM with Caco-2 and 0.4 µM in the data set on PC-3 [5]. The same compound gave a concentration for half-maximal inhibition (IC50) at 72 h in [4] of 16.5 µM.

As to `C=C(C)[C@@H]1CC[C@]2(C(=O)OCCCCCC[P+](c3ccccc3)(c3ccccc3)c3ccccc3)CC[C@]3(C)[C@H](CC[C@@H]4[C@@]5(C)CC[C@H](O[C@@H]6O[C@@H](C)[C@H](O)[C@@H](O)[C@H]6O)C(C)(C)[C@@H]5CC[C@]43C)[C@@H]12.[Br-]`, the outcome with PC-3 [6], in the data set on PC-3 [7], in the data set on PC-3 [8], with PC-3 [9], in the data set on PC-3 [10] and in the data set on PC-3 [11] was Active. Also, the result in the data set with PC-3 [12] was Active. Further, the selectivity ratio in data set [1] was 9.7. Besides, the Ratio IC50 in data set [2] stood at 5.9. For the same compound, the Drug uptake in data set [3] turned out to be 3.5 µM. The IC50 worked out at 1.1 µM in the data set on MCF7, 2 µM in the data set with Caco-2 and 1.2 µM in the data set on PC-3 [5]. Further, the IC50 at 72 h in [4] came to 10.8 µM.

On to `C=C(C)[C@@H]1CC[C@]2(C(=O)OCCCCCC[P+](c3ccccc3)(c3ccccc3)c3ccccc3)CC[C@]3(C)[C@H](CC[C@@H]4[C@@]5(C)CC[C@H](O[C@H]6O[C@H](CO)[C@@H](O)[C@H](O)[C@@H]6O)C(C)(C)[C@@H]5CC[C@]43C)[C@@H]12.[Br-]`, for which the outcome in the data set on PC-3 [7] and in the data set on PC-3 [12] was Active. The selectivity ratio in [1] was 2.5. In [2], the Ratio IC50 is 2.4. Moreover, the Drug uptake in data set [3] turned out to be 3.5 µM. The IC50 was determined as 2 µM in the data set with MCF7, 2.4 µM in the data set on Caco-2 and 2.3 µM with PC-3 [5]. The same compound gave a 50% inhibitory concentration (IC50) at 72 h in data set [4] of 2.9 µM.

The compound `C=C(C)[C@@H]1CC[C@]2(C(=O)O)CC[C@]3(C)[C@H](CC[C@@H]4[C@@]5(C)CC[C@H](O)C(C)(C)[C@@H]5CC[C@]43C)[C@@H]12` [BETULINIC ACID] had a Drug uptake in [3] of 0.035 µM.
